Reference: PMC10535741, “Styrylpyridinium Derivatives for Fluorescent Cell Imaging” (Pharmaceuticals, 2023)
“Also recorded” adds a separate entry of the source.

Columns and labels:
C6 (rat glioma) = experiment: in vitro; type: cell-based
Description: For selected compounds, 6a–6f, we performed a determination of the cytotoxicity in a wider variety of cancer and non-cancerous cell lines (see Table S2, Supplementary Materials) in order to learn the characteristic features of selectivity or the similarity of biological properties.
The HT-1080 (human connective tissue fibrosarcoma, ATCC® CCL-121™), MH-22A (mouse hepatocarcinoma, ECACC Cat. No. 96121721), A-549 (human lung carcinoma, ATCC® CCL-185™), NIH3T3 (Swiss Albino mouse embryo fibroblast, ECACC Cat. No. 93061524), Hek293 (human embryonic kidney, ATCC® CRL-1573™), BHK-21 (Syrian hamster kidney, ATCC® CCL-10™), A-431 (human epidermoid carcinoma, ATCC® CRL-1555™), Saos-2 (human osteosarcoma, ATCC® HTB-85™), HeLa (human epitheloid cervix carcinoma, ATCC® CCL-2™), U937 (human myeloid leukaemia, ATCC® CRL-1593.2™), C6 (rat glioma, ATCC® CCL-107™), and B16-F10 (murine melanoma, ATCC® CRL-6475™) cell lines were obtained from the American Type Culture Collection (ATCC) and European Collection of Authenticated Cell Cultures (ECACC).
HT-1080, MH-22A, A-549, NIH3T3, BHK-21, A-431, HeLa, and B16-F10 cells were cultured in Dulbecco’s Modified Eagle’s Medium (DMEM) with 2 mM glutamine and 10% foetal bovine serum (FBS). Hek293 cells were cultured in Eagle’s Minimum Essential Medium with 10% foetal bovine serum. U937 cells were cultured in RPMI-1640 Medium with 2 mM glutamine and 10% foetal bovine serum. C6 cells were cultured in Ham’s F12 Medium with 2 mM glutamine and 10% foetal bovine serum. Saos-2 cells were cultured in McCoy’s 5a Medium with 2 mM glutamine and 10% foetal bovine serum. The cells were incubated at 37 °C with 5% CO2, 95% air, and complete humidity. Once ~90% confluence was reached, they were detached using 0.05% trypsin/EDTA and counted. The cells were plated at optimally determined densities for the logarithmic phase of growth. These cells were then suspended at a concentration of 4000 cells/well for HT-1080, MH-22A, A-549, NIH3T3, BHK-21, A-431, HeLa, B16-F10, Hek293, and Saos-2 cells and a concentration of 9000 cells/well for U937, C6, Hek293, and GM08402 cells and added onto a 96-well plate. For background absorption, some wells remained cell free, i.e., as a blank control. Cells were incubated for 72 h at 37 °C and 5% CO2 where they were exposed to a media containing serial dilutions of the investigated compounds (n = 3). Cell viability was measured using the 3-(4,5-dimethylthiazol-2-yl)-2,5-diphenyl-tetrazolium bromide (MTT) assay. In brief, after incubating with compounds, the culture medium was removed and fresh medium with 0.2 mg/mL MTT was added to each well of the plate. After incubation (3 h, 37 °C, 5% CO2), the medium with MTT solution was removed and replaced with 200 µL DMSO and 25 µL Sorenson’s glycine buffer (glycine 0.1 M, NaCl 0.1 M, pH: 10.5 with 0.1 M NaOH). The plate was shaken for 15 min at room temperature and the optical density (OD) of the wells was determined using a multichannel spectrophotometer (Thermo Scientific Multiskan EX) at 540 nm. The quantity of the control cells was taken in calculations as 100%. The IC50 value was calculated using the program Graph Pad Prism® 3.0. […]

BMDMs = experiment: Confocal microscopy, localisation of the staining; type: cell-based, mouse; conditions: 5 μM, confocal microscopy with WGA Alexa Fluor 488 and DAPI
Description: The stained BMDMs were studied using confocal microscopy to verify the membrane, cytoplasmic, or nuclear localisation of the staining (Figure 6). Wheat germ agglutinin (WGA) Alexa Fluor 488 (Invitrogen, W11261) was chosen for selective plasma membrane labelling and DAPI (Invitrogen, D1306) was selected for nucleus labelling. […] Furthermore, the SP compound 6e was compared with commercially available CM-DiI Dye (Invitrogen, ex/em: 553/570, Figure 6b).
For confocal microscopy, BMDMs were stained with 4 μM CellTracker™ CM-DiI dye (Cat. No. C7001; Invitrogen) or 5 μM compound 6e. Briefly, the cells were washed and then a dye solution in PBS was added to them. […] Then, the cells were stained with WGA Alexa Fluor 488 (Cat. No. W11261; Invitrogen) following the manufacturer’s instructions. Briefly, the cells were incubated with 1 μg/mL WGA solution in PBS at 37 °C. […] The fluorescence was detected as follows: a DPSS (561 nm) laser was used for excitation of compound 6e and CM-Dil, an argon (488 nm) laser was used for WGA, and a diode (405 nm) laser was used for DAPI. For fluorescence detection, HyD was used for compound 6e and CM-Dil (578 nm–636 nm) and PMT detectors were used for WGA (493 nm–739 nm) and DAPI (417 nm–498 nm), pinhole at 95 µm. The images were analysed using Leica Application Suite X 3.1.5. software (Leica Microsystems, Germany).

Structure (SMILES): CCCCCCCCCCCCCCCC[n+]1ccc(C=Cc2cc(OC)c(OC)c(OC)c2)cc1.[Br-] [Compound 6b]
- Cytotoxicity IC50 C6 (C6 (rat glioma)): 1.23 µg/mL

Structure (SMILES): CCCCCCCCCCCCCCCC[n+]1ccc(C=CC=Cc2cc3c4c(c2)CCCN4CCC3)cc1.[Br-] [Compound 6e, 1-hexadecyl-4-(4-(2,3,6,7-tetrahydro-1H,5H-pyrido[3,2,1-ij]quinolin-9-yl)buta-1,3-dien-1-yl)pyridin-1-ium bromide]
- localisation of the staining in cells (BMDMs): strong fluorescent signal localised in the cell cytoplasm, whereas the cell nuclei were not stained; also recorded: localised in the cell cytoplasm and does not stain the cell nucleus; also recorded: localises within the cell cytoplasm and does not stain the cell nucleus
